16 molecules from PubChem BioAssay (NCI) can be followed below.

Where “and” joins values, the source holds several entries; their conditions need not be identical. Identical values can stand only once.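 How tested: cells in 96-well plates exposed to compound for 48 hours at five concentrations. GI50: concentration for 50% inhibition of growth. TGI marks complete inhibition of growth.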

Holding throughout (test): inhibition of tumour cell growth, NCI panel, 48 h
Experiment [1] concerns TK-10 renal.
In experiment [2] the test system is UACC-62 melanoma.
Experiment [3] relates to M14 melanoma.
Experiment [4] deals with SK-MEL-28 melanoma.
For experiment [5], the system named is COLO 205 colon.
Experiment [6] relates to RXF 393 renal.
The subject of experiment [7] is K-562 leukemia.
The subject of experiment [8] is HOP-92 NSCLC.
Experiment [9] relates to NCI/ADR-RES ovarian.
For experiment [10], the system named is SNB-75 CNS.

Regarding `CN1CC(S(=O)(=O)c2ccccc2)CC(S(=O)(=O)c2ccccc2)C1c1ccccc1` (stereo not drawn), the TGI in [1] turned out to be 28 µM; in [2], 29 µM; in [3], 42.1 µM; in experiment [4] it was 36.7 µM; in experiment [5], 28 µM; in [6], 37.3 µM. The TGI in experiment [7] is 95.2 µM; in experiment [8], 37.7 µM; in experiment [9], above 100 µM.
As to `Cc1ccc(Cc2nn(C)c(=O)n2-n2cccc2)cc1`, the TGI in experiment [1], in [10], in [2], in experiment [3], in experiment [4] and in experiment [5] was above 100 µM each time. Besides, the TGI in experiment [6], in [7] and in [9] was above 100 µM each time.
With `Cc1nc2ccc(S(=O)(=O)Nc3ccccc3Cl)cc2c(=O)n1NC(=O)CNc1ccccc1Cl`, the TGI in [1], in experiment [10], in [2], in experiment [3], in experiment [4] and in experiment [5] was above 100 µM throughout. Besides, the TGI in experiment [7], in experiment [8] and in experiment [9] was above 100 µM throughout.
Regarding `Cc1n(CC(C)C)c2c([n+]1CC(=O)c1ccc([N+](=O)[O-])cc1)C(=O)c1ccccc1C2=O`, the TGI in experiment [10] is 0.641 µM; in [2], 0.104 µM; in experiment [4], 0.902 µM; in experiment [5], below 0.01 µM; in [7], 1.33 µM; in experiment [8], 0.128 µM. Further, the TGI in experiment [9] worked out at 2.91 µM.
For `COc1cc(O)c2c(c1O)C(=O)c1cc(C)ncc1C2=O`, the TGI in experiment [1], in [10], in experiment [2], in experiment [3], in experiment [4] and in experiment [5] was above 50 µM in each case. Besides, the TGI in experiment [6] and in [7] was above 50 µM in each case.
As for `COC(=O)c1cn(CCCCO)nn1`, the TGI in [1], in experiment [10], in experiment [2], in experiment [4], in experiment [5] and in experiment [6] was above 100 µM each time. Moreover, the TGI in [8] and in experiment [9] was above 100 µM in each case.
On to `N#Cc1c(-c2ccccc2)c(C#N)c(=S)n(C2OCC(O)C(O)C2O)c1N` (stereo not drawn), for which the TGI in experiment [1], in experiment [10], in experiment [2], in experiment [3], in experiment [4] and in experiment [6] was above 100 µM throughout. Also, the TGI in [7] and in experiment [9] was above 100 µM each time. For the same molecule, in experiment [6], the GI50 was 26.7 µM and > 100 µM.
Turning to `OCCN1CCN(c2nc(Nc3ccc(-c4nc5ccccc5[nH]4)cc3)c3cn[nH]c3n2)CC1`, the results for the GI50 in experiment [4], in [6] and in [8] were 1.65 µM, 1.43 µM and 1.41 µM, respectively. Moreover, the values for the TGI in experiment [4], in experiment [6] and in [8] were 3.05 µM, 2.85 µM and 2.91 µM, respectively.
As for `CCC(C)C(NC(=O)c1c2ccccc2nc2ccccc12)C(=O)O` (stereo not drawn), the TGI in experiment [1], in experiment [10], in [2], in [3], in experiment [4] and in experiment [5] was above 100 µM each time. In addition, the TGI in experiment [7], in experiment [8] and in experiment [9] was above 100 µM each time.
For the molecule `COC(=O)C1=C(OC(=O)/C(=C/c2c(F)cccc2F)c2ccccc2)C(C(=O)OC)[C@@]2(O)[C@@H](C(=O)OC)[C@H](C)C[C@@H]1[C@@H]2C(=O)OC` (stereo partly drawn), the TGI in experiment [1], in [10], in experiment [2], in experiment [3], in experiment [4] and in [5] was above 100 µM throughout. Moreover, the TGI in experiment [6], in experiment [7] and in [9] was above 100 µM in each case.
For the molecule `CCCCCCCSCC1OC(n2cnc3c(N)ncnc32)C(O)C1O` (stereo not drawn), the TGI in experiment [1] was above 100 µM; in experiment [10], above 100 µM; in experiment [3], 48.5 µM; in [4], above 100 µM; in experiment [5] it was 28.3 µM; in [6] it was above 100 µM. For the same molecule, the TGI is above 100 µM in [7] and 58 µM in experiment [8].
For the molecule `O=C1CSC(c2ccccc2[N+](=O)[O-])N1c1ccc(-n2c(-c3ccccc3)nc3ccccc3c2=O)cc1` (stereo not drawn), the TGI in experiment [1] is above 100 µM; in experiment [10] it was 34.9 µM; in experiment [2] it was above 100 µM; in experiment [4], above 100 µM; in experiment [5], above 100 µM; in [7] it was above 100 µM. Besides, the TGI was 60.2 µM in [8] and above 100 µM in experiment [9].
On to `C=CCCCCn1c2ccccc2c2c(C)c3c[n+](C)ccc3c(C)c21`, for which the TGI in experiment [1] was found to be 6.89 µM; in experiment [2], 1.28 µM; in [3], 2.19 µM; in experiment [4], 1.41 µM; in [5], 1.08 µM; in experiment [6] it was 2.11 µM. The TGI came to 1.29 µM in experiment [7] and 0.783 µM in experiment [8].
As for `C[N+]1(CCCC[N+]2(C)CCCCCCC2)CCCCCCC1`, the TGI in experiment [1], in experiment [2], in experiment [3], in experiment [4], in experiment [6] and in experiment [7] was above 100 µM throughout. Besides, the TGI in experiment [8] and in [9] was above 100 µM throughout.
Take `CCCCCCCCCCCCCCC[C@@H](O)C[N+](C)(C)CCO`: the TGI in experiment [1] stood at 2.86 µM; in experiment [10] it was 7.54 µM; in experiment [2], 36.4 µM; in [3], 41.1 µM; in experiment [4], 52.5 µM; in experiment [5], 14.6 µM. Also, the TGI in experiment [7] was above 100 µM; in experiment [8], above 39.7 µM; in experiment [9] it was 34.3 µM.
Turning to `COc1ccc2[nH]cc(CN3CCC(CO)(c4ccccc4)CC3)c2c1`, the TGI is above 100 µM in experiment [1]; 87.6 µM in experiment [10]; 92.2 µM in experiment [2]; 32.3 µM in experiment [3]; 33.3 µM in experiment [4]; 40.3 µM in experiment [5]. Moreover, the TGI in experiment [6] is above 100 µM; in experiment [7], 43.1 µM; in experiment [9], above 100 µM.
